Source: patent US9687480B2, “Chiral 1-(4-methylphenylmethyl)-5-oxo-{N-[(3-t-butoxycarbonyl-aminomethyl)]-piperidin-1-yl)-pyrrolidine as inhibitors of collagen induced platelet activation and adhesion” (Council of Scientific & Industrial Research, priority 2011, dated 2017)

How the values were obtained:
hamster platelets = assay: Platelet adhesion on collagen coated surface (hyperlipidemic hamster model, ex vivo); format: in vivo, hamsters; settings: hyperlipidemic hamsters, ex vivo
Description: Platelet adhesion to collagen was measured in polystyrene 96-well micro titer plates. Micro titer plates were coated with insoluble equine tendon native fibrillar type I collagen (Chrono-Log Corp. Havertown, USA), 2 μg/well in 5 mM acetic acid (Tandon N N, Ockenhouse C F, Greco […]. Adhesive functions of platelet lacking GPIV (CD36). Blood 1991; 78: 2809-13) overnight at 4° C. The unoccupied protein binding sites on the wells were blocked with 0.5% BSA in Tyrode's-HEPES buffer (136.7 mM NaCl, 13.8 mM NaHCO3. 0.36 mM NaH2PO4.H2O, 2.6 mM KCl, 1.0 mM MgCl2.6H2O, 5.5 mM glucose, pH 7.4) at room temperature for 1 hour, and then rinsed once with PBS. Washed platelets were suspended in the Tyrode's-HEPES buffer and added to the wells (2×10^7 cells/well) for 1 h at room temperature. After three washes with PBS, the number of adherent platelets was evaluated colorimetrically (Bellavite P., Andrioli G., Gizzo P., Arigliano P., Chirumbolo […] colorimetric method for the measurement of platelet adhesion in microtiter plates. Anal. Blochem. 1994; 216:444-450). Briefly, 150 μl of a 0.1 M citrate buffer (pH 5.4), containing 5 mM p-nitrophenyl phosphate and 0.1% TritonX-100 was added to the wells after washing. After incubation for 30 minutes at 25° C. in the absence of ambient light, colour was developed by the addition of 100 μl of 2N NaOH and the absorbance at 405 nm was read using a microplate reader (Powerware XS, Biotek, USA).

hyperlipidemic hamsters [1] = assay: FeCl3 induced thrombosis in hyperlipidemic hamsters; format: in vivo; settings: HCHF fed hamsters
Description: (§1) HCHF treated hamsters were anesthetized by urethane (1.25 g/kg, i.p.). The carotid artery was carefully dissected and a pulsed Doppler Probe (DBF-120A-CPx, CBI-8000, Crystal Biotech. USA) was placed around it to record the blood flow velocity and potency of the blood vessels. The carotid artery thrombosis was induced by FeCl3 as follows: a square (1×1 mm) of Whatman Chromatography paper was immersed in 30% FeCl3 solution for 5 min and placed on the carotid artery as described earlier (Kurz K D, Main B W, Sandusky G E. Rat model of arterial thrombosis induced by ferric chloride. Thromb Res 1990; 60(4):269-80). Thrombosis was monitored as the reduction in carotid artery blood flow. The time at which the blood-flow velocity was decreased to zero was recorded as the total of occlusion of the vessel.

hyperlipidemic hamsters [2] = assay: Arterio-venous shunt model in hyperlipidemic hamsters; format: in vivo; settings: hyperlipidemic hamsters; compound 6 at 10 μM/kg
rats = assay: FeCl3 induced carotid artery thrombosis in rats; format: in vivo; settings: rats; compound 1 at the same dose as compound 6; aspirin at a very high dose
Description: as §1, with “Male SD rats” for “HCHF treated hamsters”, “Biotech,” for “Biotech.”, “patency” for “potency”, “20%” for “30%”, “occlusion (TTO)” for “occlusion”, “carotid artery. […] (Ferric Chloride induced thrombosis (FIG. 7))” for “vessel.”

[3] = system: hamster whole blood (Thrombin 1 U/ml); assay: Whole blood aggregation in hyperlipidemic hamsters (ex vivo), thrombin induced; settings: HCHF hamsters ex vivo; aspirin 100 μM/kg, clopidogrel 30 μM/kg
mice = assay: Tail bleeding time in mice; format: in vivo; settings: aspirin 170 μM/kg, clopidogrel 30 μM/kg
Description: Bleeding time in mice was evaluated by the method of Dejana et al, (Dejana E, Callioni A, Quintana A, Gaetano G. Bleeding time in laboratory animals. II—A comparison of different assay conditions in rats. […] The time elapsed from the tip incision to the stoppage of bleeding was determined as the bleeding time. The preferred compounds, aspirin (30 mg/kg) or vehicle was given orally 60 min prior to the tail incision in a group of 5 mice each.

[4] = system: hamster whole blood (ADP 10 μM); assay: Whole blood aggregation in hyperlipidemic hamsters (ex vivo), ADP induced; settings: HCHF hamsters ex vivo, aspirin 100 μM/kg, clopidogrel 30 μM/kg
mouse platelets = assay: Platelet adhesion over collagen matrix (mice, ex vivo); format: in vivo; settings: oral route, compound 6 10, 30, 100 μM/kg, aspirin 100 μM/kg
Excerpt: FIG. 4b: Adhesion of mouse platelets on collagen matrix as observed under fluorescence microscope 40× (ex vivo method). Different pictures show the different treatment performed. Washed murine platelets (2×10^6/ml) were obtained from animals pretreated with the compound (compound 6) (different doses) and seeded on BSA or Collagen (fibrillar) coated cover slips (A, B). Platelets from untreated animals were allowed to adhere on uncoated and BSA coated cover slip respectively to delineate the possibility of non specific binding. C, D. control platelets were adhered on collagen coated cover slip (control). E. F&G. Platelets obtained from animals pre-treated with compound 6 (10 μM/kg, 30 μM/kg & 100 μM/kg) respectively were adhered on collagen coated cover slip. H, I. Platelets from Aspirin (100 μM/kg) & Clopidogrel treated (100 μM/kg) animals resp. (standard Drugs) and adhered on collagen coated cover slip (n=5, 5 animals/group/experiment).

[5] = system: hamster whole blood (Collagen 2.5 μg/ml); assay: Whole blood aggregation in hyperlipidemic hamsters (ex vivo), collagen induced; settings: HCHF hamsters ex vivo, aspirin 100 μM/kg, clopidogrel 30 μM/kg

| SMILES | platelet adhesion over collagen coated surface (hamster platelets) | time to occlusion (TTO) (hyperlipidemic hamsters [1]) | thrombus weight (hyperlipidemic hamsters [2]) | time to occlude the carotid artery (TTO) (rats) | thrombin induced whole blood platelet aggregation [3] | bleeding time, standard drugs (mice) | ADP induced whole blood platelet aggregation [4] | platelet adhesion (ex vivo) over collagen surface (mouse platelets) | collagen induced whole blood platelet aggregation [5] | collagen induced whole blood platelet aggregation ([5]; listed as Aspirin) | ADP induced whole blood platelet aggregation ([4]; listed as Clopidogrel) |
| --- | --- | --- | --- | --- | --- | --- | --- | --- | --- | --- | --- |
| CC(=O)Oc1ccccc1C(=O)O [aspirin, reference compound] | no alteration | significantly prolonged | significantly reduced | remained ineffective | can only inhibit ADP and Thrombin | significantly prolonged | can only inhibit ADP and Thrombin | did not exhibit any inhibitory effect | but not collagen induced aggregation | reduced platelet aggregation in response to collagen |  |
| COC(=O)[C@H](c1ccccc1Cl)N1CCc2sccc2C1 [clopidogrel, reference compound] | significant reduction | significantly prolonged | significantly reduced |  |  |  | can only inhibit ADP induced aggregation |  | inhibited ADP and collagen induced platelet aggregation |  | inhibited ADP and collagen induced platelet aggregation |
